Data reported in US10214519B2, “Phosphatidylinositol 3-kinase inhibitors” (Gilead Sciences, Inc., priority 2016, dated 2019).

What follows are compounds tested against PI3Kβ (Homo sapiens (Human), UniProt P42338) (assay: PI3K isoform TR-FRET enzymatic assay (PI3Kβ)). Settings: 2× Km ATP, 30 minutes at 25° C.
Format: biochemical
How it was run: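 Heterodimeric recombinant PI3Kβ was incubated with compound 30 minutes at 25° C. Product was detected by TR-FRET competition with 10 nM labeled PIP3 for 35 nM Eu-GRP-1 PH domain after EDTA stop. Data were normalized to 1 μM wortmannin and DMSO, and IC50 was taken from a four-parameter fit.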

PI3Kβ, sequence (P42338 whole entry, canonical isoform): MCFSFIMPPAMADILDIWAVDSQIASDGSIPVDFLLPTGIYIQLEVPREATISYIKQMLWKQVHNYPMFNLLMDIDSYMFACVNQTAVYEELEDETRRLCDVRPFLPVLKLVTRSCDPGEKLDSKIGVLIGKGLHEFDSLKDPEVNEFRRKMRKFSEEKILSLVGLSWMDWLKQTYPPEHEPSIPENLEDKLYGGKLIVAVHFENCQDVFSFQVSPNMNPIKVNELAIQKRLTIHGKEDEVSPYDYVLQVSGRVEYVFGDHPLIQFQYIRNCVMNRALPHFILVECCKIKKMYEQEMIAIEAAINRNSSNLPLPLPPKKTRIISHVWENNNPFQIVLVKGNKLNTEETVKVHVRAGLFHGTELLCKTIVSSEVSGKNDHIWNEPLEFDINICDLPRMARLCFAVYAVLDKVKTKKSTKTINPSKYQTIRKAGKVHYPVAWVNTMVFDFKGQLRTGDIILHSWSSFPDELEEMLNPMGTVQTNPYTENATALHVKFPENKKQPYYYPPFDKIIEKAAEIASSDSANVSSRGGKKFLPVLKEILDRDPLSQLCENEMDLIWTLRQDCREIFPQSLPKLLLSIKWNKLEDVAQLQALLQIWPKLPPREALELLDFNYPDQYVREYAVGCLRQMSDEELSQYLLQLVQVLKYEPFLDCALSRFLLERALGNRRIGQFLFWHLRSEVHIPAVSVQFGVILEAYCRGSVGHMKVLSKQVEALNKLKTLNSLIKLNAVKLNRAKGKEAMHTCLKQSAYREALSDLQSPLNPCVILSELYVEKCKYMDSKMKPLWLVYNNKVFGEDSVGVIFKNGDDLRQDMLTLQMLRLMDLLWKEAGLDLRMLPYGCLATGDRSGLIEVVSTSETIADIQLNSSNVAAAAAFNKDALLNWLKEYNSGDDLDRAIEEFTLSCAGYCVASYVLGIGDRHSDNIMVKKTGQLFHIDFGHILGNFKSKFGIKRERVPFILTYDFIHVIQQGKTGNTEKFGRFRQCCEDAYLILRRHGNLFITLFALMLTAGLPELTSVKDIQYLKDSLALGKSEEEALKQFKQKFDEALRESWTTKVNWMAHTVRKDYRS
PI3Kβ, sequence (P27986 whole entry partner, canonical isoform): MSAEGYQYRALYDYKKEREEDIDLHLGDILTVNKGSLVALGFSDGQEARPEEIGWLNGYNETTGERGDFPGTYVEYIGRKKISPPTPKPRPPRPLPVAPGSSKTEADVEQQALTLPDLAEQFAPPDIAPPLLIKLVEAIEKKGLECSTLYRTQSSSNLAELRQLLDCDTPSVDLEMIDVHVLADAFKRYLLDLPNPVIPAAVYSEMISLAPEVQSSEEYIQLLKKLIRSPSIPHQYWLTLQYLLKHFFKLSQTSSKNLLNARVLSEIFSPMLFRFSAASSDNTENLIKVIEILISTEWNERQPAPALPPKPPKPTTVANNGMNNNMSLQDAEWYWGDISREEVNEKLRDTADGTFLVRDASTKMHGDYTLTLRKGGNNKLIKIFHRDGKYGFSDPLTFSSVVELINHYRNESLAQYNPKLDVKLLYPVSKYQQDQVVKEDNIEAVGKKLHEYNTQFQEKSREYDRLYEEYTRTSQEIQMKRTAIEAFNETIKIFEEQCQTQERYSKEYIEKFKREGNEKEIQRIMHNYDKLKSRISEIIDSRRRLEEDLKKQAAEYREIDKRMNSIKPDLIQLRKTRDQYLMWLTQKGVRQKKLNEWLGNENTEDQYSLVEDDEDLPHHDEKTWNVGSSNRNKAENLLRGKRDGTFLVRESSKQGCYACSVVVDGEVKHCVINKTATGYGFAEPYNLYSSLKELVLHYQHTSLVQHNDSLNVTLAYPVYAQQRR

Structure (SMILES)	IC50 [nM]
CCc1nc2c(-c3nnc(C)[nH]3)cc(N3CCOCC3)cc2n1-c1ccnc2c(F)ccc(F)c12 [Example 152, 4-(1-(5,8-difluoroquinolin-4-yl)-2-ethyl-4-(5-methyl-4H-1,2,4-triazol-3-yl)-1H-benzo[d]imidazol-6-yl)morpholine]	59
Cc1nc2c(-c3nnc[nH]3)cc(N3CCOCC3)cc2n1-c1c(F)cnc2ccccc12 [Example 153, 4-(1-(3-fluoroquinolin-4-yl)-2-methyl-4-(4H-1,2,4-triazol-3-yl)-1H-benzo[d]imidazol-6-yl)morpholine]	120
Cc1nnc(-c2cc(N3CCOCC3)cc3c2nc(C)n3-c2c(F)cnc3ccccc23)[nH]1 [Example 154, 4-(1-(3-fluoroquinolin-4-yl)-2-methyl-4-(5-methyl-4H-1,2,4-triazol-3-yl)-1H-benzo[d]imidazol-6-yl)morpholine]	2200
CCc1nc2c(-c3nnc[nH]3)cc(N3CCOCC3)cc2n1-c1c(C)cnc2c(C#N)cccc12 [Example 155, 4-(2-ethyl-6-morpholino-4-(4H-1,2,4-triazol-3-yl)-1H-benzo[d]imidazol-1-yl)-3-methylquinoline-8-carbonitrile]	20
Cc1cnc2c(C#N)cccc2c1-n1c(C)nc2c(-c3nnc[nH]3)cc(N3CCOCC3)cc21 [Example 156, 3-methyl-4-(2-methyl-6-morpholino-4-(4H-1,2,4-triazol-3-yl)-1H-benzo[d]imidazol-1-yl)quinoline-8-carbonitrile]	20
Cc1nnc(-c2cc(N3CCOCC3)cc3c2nc(C)n3-c2c(Cl)cnc3c(Cl)cccc23)[nH]1 [Example 157, 4-(1-(3,8-dichloroquinolin-4-yl)-2-methyl-4-(5-methyl-4H-1,2,4-triazol-3-yl)-1H-benzo[d]imidazol-6-yl)morpholine]	47
Cc1cc(-n2c(C)nc3c(-c4nnn[nH]4)cc(N4CCOCC4)cc32)c2ccccc2n1 [Example 160, 4-(2-methyl-1-(2-methylquinolin-4-yl)-4-(1H-tetrazol-5-yl)-1H-benzo[d]imidazol-6-yl)morpholine]	470
Cc1nc2c(-c3nnn[nH]3)cc(N3CCOCC3)cc2n1-c1ccnc2c(Cl)cccc12 [Example 161]	23
Cc1nc2c(-c3nnco3)cc(N3CCOCC3)cc2n1-c1ccnc2c(Cl)cccc12 [Example 162, 4-(1-(8-chloroquinolin-4-yl)-2-methyl-4-(1,3,4-oxadiazol-2-yl)-1H-benzo[d]imidazol-6-yl)morpholine]	77
Cc1nc2c(-c3nnc(N)o3)cc(N3CCOCC3)cc2n1-c1ccnc2cc(F)ccc12 [Example 163, 5-(1-(7-fluoroquinolin-4-yl)-2-methyl-6-morpholino-1H-benzo[d]imidazol-4-yl)-1,3,4-oxadiazol-2-amine]	630
Cc1nc2c(-c3n[nH]c(=S)o3)cc(N3CCOCC3)cc2n1-c1ccnc2cc(F)ccc12 [Example 164, 5-(1-(7-fluoroquinolin-4-yl)-2-methyl-6-morpholino-1H-benzo[d]imidazol-4-yl)-1,3,4-oxadiazole-2(3H)-thione]	130
Cc1nc2c(-c3nnc(N)s3)cc(N3CCOCC3)cc2n1-c1ccnc2cc(F)ccc12 [Example 165, 5-(1-(7-fluoroquinolin-4-yl)-2-methyl-6-morpholino-1H-benzo[d]imidazol-4-yl)-1,3,4-thiadiazol-2-amine]	720
Cc1nc2c(-c3n[nH]c(=O)o3)cc(N3CCOCC3)cc2n1-c1ccnc2cc(F)ccc12 [Example 166, 5-(1-(7-fluoroquinolin-4-yl)-2-methyl-6-morpholino-1H-benzo[d]imidazol-4-yl)-1,3,4-oxadiazol-2(3H)-one]	480
Cc1nc2c(-c3nnc[nH]3)cc(N3CCOCC3)cc2n1-c1cc(-c2cn[nH]c2)nc2ccccc12 [Example 167, 4-(1-(2-(1H-pyrazol-4-yl)quinolin-4-yl)-2-methyl-4-(4H-1,2,4-triazol-3-yl)-1H-benzo[d]imidazol-6-yl)morpholine 2,2,2-trifluoroacetate]	12
Cc1nc2c(-c3nnc[nH]3)cc(N3CCOCC3)cc2n1-c1cc(N2CCNCC2)nc2ccccc12 [Example 168, 4-(2-methyl-1-(2-(piperazin-1-yl)quinolin-4-yl)-4-(4H-1,2,4-triazol-3-yl)-1H-benzo[d]imidazol-6-yl)morpholine 2,2,2-trifluoroacetate]	9
Cc1nnc(-c2cc(N3CCOCC3)cc3c2nc(C)n3-c2cc(N3CCNCC3)nc3ccccc23)[nH]1 [Example 169, 4-(2-methyl-4-(5-methyl-4H-1,2,4-triazol-3-yl)-1-(2-(piperazin-1-yl)quinolin-4-yl)-1H-benzo[d]imidazol-6-yl)morpholine]	16
Cc1nc2c(-c3nnc(Cl)[nH]3)cc(N3CCOCC3)cc2n1-c1ccnc2c(Cl)ccc(F)c12 [Example 170, 4-(4-(5-chloro-4H-1,2,4-triazol-3-yl)-1-(8-chloro-5-fluoroquinolin-4-yl)-2-methyl-1H-benzo[d]imidazol-6-yl)morpholine]	7
Cc1nc2c(-c3nnc(Cl)[nH]3)cc(N3CCOCC3)cc2n1-c1ccnc2c(Cl)c(F)ccc12 [Example 171, 4-(4-(5-chloro-4H-1,2,4-triazol-3-yl)-1-(8-chloro-7-fluoroquinolin-4-yl)-2-methyl-1H-benzo[d]imidazol-6-yl)morpholine]	100
CCc1nc2c(-c3nnc(Cl)[nH]3)cc(N3CCOCC3)cc2n1-c1ccnc2c(Cl)c(F)ccc12 [Example 172, 4-(4-(5-chloro-4H-1,2,4-triazol-3-yl)-1-(8-chloro-7-fluoroquinolin-4-yl)-2-ethyl-1H-benzo[d]imidazol-6-yl)morpholine]	100
Fc1ccc2c(-n3c(C4CC4)nc4c(-c5nnc(Cl)[nH]5)cc(N5CCOCC5)cc43)ccnc2c1Cl [Example 173, 4-(4-(5-chloro-4H-1,2,4-triazol-3-yl)-1-(8-chloro-7-fluoroquinolin-4-yl)-2-cyclopropyl-1H-benzo[d]imidazol-6-yl)morpholine]	140
Fc1ccc(Cl)c2nccc(-n3c(C4CC4)nc4c(-c5nnc(Cl)[nH]5)cc(N5CCOCC5)cc43)c12 [Example 174, 4-(4-(5-chloro-4H-1,2,4-triazol-3-yl)-1-(8-chloro-5-fluoroquinolin-4-yl)-2-cyclopropyl-1H-benzo[d]imidazol-6-yl)morpholine]	13
Cc1nc2c(-c3ncc[nH]3)cc(N3CCOCC3)cc2n1-c1ccnc2c(Cl)cccc12 [Example 175, 4-[3-(8-chloroquinolin-4-yl)-7-(1H-imidazol-2-yl)-2-methylbenzimidazol-5-yl]morpholine]	10
Cc1c[nH]c(-c2cc(N3CCOCC3)cc3c2nc(C)n3-c2ccnc3c(Cl)cccc23)n1 [Example 176, 4-[3-(8-chloroquinolin-4-yl)-2-methyl-7-(4-methyl-1H-imidazol-2-yl)benzimidazol-5-yl]morpholine]	510
Cc1nc[nH]c1-c1cc(N2CCOCC2)cc2c1nc(C)n2-c1ccnc2c(Cl)cccc12 [Example 177, 4-[3-(8-chloroquinolin-4-yl)-2-methyl-7-(4-methyl-1H-imidazol-5-yl)benzimidazol-5-yl]morpholine]	230
Cc1nc2c(-c3nnc(Cl)[nH]3)cc(N3CCOCC3)cc2n1-c1ccnc2c(Cl)cccc12 [Example 178, 4-[3-(8-chloroquinolin-4-yl)-7-(5-chloro-4H-1,2,4-triazol-3-yl)-2-methylbenzimidazol-5-yl]morpholine]	12
